# Patent US10898548B2, “Modulators of protein tyrosine phosphatase and uses thereof” (LEUVAS THERAPEUTICS, priority 2015, dated 2021)
# Test system: protein tyrosine phosphorylation in fMLP-stimulated monocytes
# Test: Kinexus antibody microarray of tyrosine phosphorylation in fMLP-stimulated monocytes
# Format: cell-based, human
# Parameters: key to Functional effect of P1-WD on BTK / Functional effect of P1-WD on CDK2 / Functional effect of P1-WD on CTTN / Functional effect of P1-WD on DAB1 / Functional effect of P1-WD on DOK2 / Functional effect of P1-WD on ERBB2 / Functional effect of P1-WD on GRIN2B / Functional effect of P1-WD on ITGB1 / Functional effect of P1-WD on JAK2 / Functional effect of P1-WD on KDR / Functional effect of P1-WD on KIT / Functional effect of P1-WD on LIMK1 / Functional effect of P1-WD on MET / Functional effect of P1-WD on PDGFRA / Functional effect of P1-WD on PDGFRB / Functional effect of P1-WD on PRKCD / Functional effect of P1-WD on SHC1 / Functional effect of P1-WD on STAT1 / Functional effect of P1-WD on STAT2 / Functional effect of P1-WD on STAT3 / Functional effect of P1-WD on STAT5A / Functional effect of P1-WD on VCL / Functional effect of P1-WD on ABL1 / Functional effect of P1-WD on BLNK / Functional effect of P1-WD on BMX: inhibition (IN); activation (ACT)
# Source text: To identify PTPRG targets in the context of fMLP signaling, we employed a high throughput antibody array technology using the P1-WD approach and fMLP-potentiated signaling networks, since this directly correlates with integrin triggering and mediated rapid adhesion. To analyze the phosphoproteome we used the comprehensive high throughput service developed by Kinexus, CA, USA. The Kinexus antibody microarray includes about 500 pan-specific and over 350 phosphosite-specific antibodies per chip, in duplicate spots. The analysis covers a variety of selected cell signaling proteins regulating cell proliferation, stress, apoptosis, adhesion, secretion, motility and other biological processes. Monocytes were treated with 50 μM P1 or P1-WD peptides for 60 min. at 37° C. and then stimulated with 50 nM fMLP for 3 min. Cells were immediately lysed according to Kinexus protocol and the samples were sent to Kinexus for microarray analysis. Data were normalized to control cells and statistically filtered by Kinexus to identify the most significant best hits. The analysis was, then, focused on phosphotyrosine-specific antibodies. Network inference analysis was performed within Cytoscape 3.1 bioinformatics environment by using previously established interatomic datasets compiled from public data-bases. The compiled protein-protein interatomic data-set was manually curated to remove self-loops and duplicate edges; different protein IDs were normalized to HGNC standard IDs. The set of 31 identified proteins whose tyrosine phosphorylation status was affected by PTPRG activity was used as bioinformatics probe allowing sub-network reconstruction. Directed node centrality indexes were computed with the Cytoscape plug-in Centiscape 2.1 (Scardoni G, et al., 2009, Bioinformatics 25: 2857-2859). Network modular decomposition was executed with the Cytoscape plug-in MCODE (Bader G, et al., 2003, BMC Bioinformatics 4: 2). Literature data mining was performed by multiple data base interrogation, mainly based on Phosphosite, PhosphoELM, PhosphoNet and KEA.
# Data analysis identified 31 molecules whose phosphorylation was modified in a statistically significant manner (Table 9). Values in % columns are percentage increase or decrease of protein tyrosine phosphorylation upon fMLP-triggering in P1-WD-treated vs P1-control treated monocytes. For some proteins (For some proteins (EGFR, INSR, KDR, KIT, PDGFRA, PTK2, PXN, SRC and ZAP70) multiple phosphotyrosine residues are detected. From left to right, columns are HGNC protein symbols (in alphabetic order), phosphosites (p-Sites), changes of phosphorylation (induced by P1-WD) and the putative functional effect, inferred from literature data-mining. EGFR and PTK2 are highlighted in gray since the functional effect could not be unambiguously inferred. The functional effect of P1-WD in the far right column indicates either inhibition (IN) or activation (ACT).
# [1] = P1-WD vs P1, 50 μM 60 min, 50 nM fMLP 3 min
# [2] = putative, inferred from literature data-mining
# [3] = putative, inferred from literature data-mining, per p-Site
substance,measurement,setting,value
"P1-WD: fusion Trojan peptide SEQ ID 3: Penetratin, glycine, PTPRG wedge domain aa 831-856; RQIKIWFQNRRMKWKKGKQFVKHIGELYSNNQHGFSEDFEEVQ (listed as Homo sapiens)",change of ABL1 Y412 tyrosine phosphorylation,[1],−40%
same,change of BLNK Y84 tyrosine phosphorylation,[1],19%
same,change of BMX Y40 tyrosine phosphorylation,[1],−7%
same,change of BTK Y223 tyrosine phosphorylation,[1],−58%
same,change of CDK2 Y15 tyrosine phosphorylation,[1],282%
same,change of CTTN Y470 tyrosine phosphorylation,[1],21%
same,change of DAB1 Y198 tyrosine phosphorylation,[1],−34%
same,change of DOK2 Y142 tyrosine phosphorylation,[1],9%
same,change of EGFR Y1068 tyrosine phosphorylation,[1],−13%
same,change of EGFR Y1148 tyrosine phosphorylation,[1],−16%
same,change of EGFR Y1173 tyrosine phosphorylation,[1],68%
same,change of ERBB2 Y1248 tyrosine phosphorylation,[1],34%
same,change of GRIN2B Y1474 tyrosine phosphorylation,[1],29%
same,change of INSR Y999 tyrosine phosphorylation,[1],58%
same,change of INSR Y1189/Y1190 tyrosine phosphorylation,[1],27%
same,change of ITGB1 Y783 tyrosine phosphorylation,[1],−11%
same,change of JAK2 Y1007/Y1008 tyrosine phosphorylation,[1],−33%
same,change of KDR Y1054 + Y1059 tyrosine phosphorylation,[1],22%
same,change of KDR Y1054 tyrosine phosphorylation,[1],−37%
same,change of KIT Y703 tyrosine phosphorylation,[1],−60%
same,change of KIT Y730 tyrosine phosphorylation,[1],−47%
same,change of LIMK1 Y507 tyrosine phosphorylation,[1],−10%
same,change of MET Y1003 tyrosine phosphorylation,[1],−47%
same,change of PDGFRA Y742 tyrosine phosphorylation,[1],133%
same,change of PDGFRA Y754 tyrosine phosphorylation,[1],86%
same,change of PDGFRB Y716 tyrosine phosphorylation,[1],−36%
same,change of PRKCD Y313 tyrosine phosphorylation,[1],189%
same,change of PTK2 Y397 tyrosine phosphorylation,[1],30%
same,change of PTK2 Y576 tyrosine phosphorylation,[1],65%
same,change of PTK2 Y577 tyrosine phosphorylation,[1],−60%
same,change of PTK2 Y861 tyrosine phosphorylation,[1],−11%
same,change of PXN Y31 tyrosine phosphorylation,[1],19%
same,change of PXN Y118 tyrosine phosphorylation,[1],144%
same,change of SHC1 Y349 + Y350 tyrosine phosphorylation,[1],−10%
same,change of SRC Y419 tyrosine phosphorylation,[1],−6%
same,change of SRC Y530 tyrosine phosphorylation,[1],94%
same,change of STAT1 Y701 tyrosine phosphorylation,[1],38%
same,change of STAT2 Y690 tyrosine phosphorylation,[1],61%
same,change of STAT3 Y705 tyrosine phosphorylation,[1],182%
same,change of STAT5A Y694 tyrosine phosphorylation,[1],50%
same,change of VCL Y821 tyrosine phosphorylation,[1],−20%
same,change of ZAP70 Y292 tyrosine phosphorylation,[1],−46%
same,change of ZAP70 Y315 + Y319 tyrosine phosphorylation,[1],12%
same,Functional effect of P1-WD on ABL1,[2],IN
same,Functional effect of P1-WD on BLNK,[2],ACT
same,Functional effect of P1-WD on BMX,[2],IN
same,Functional effect of P1-WD on BTK,[2],IN
same,Functional effect of P1-WD on CDK2,[2],IN
same,Functional effect of P1-WD on CTTN,[2],IN
same,Functional effect of P1-WD on DAB1,[2],IN
same,Functional effect of P1-WD on DOK2,[2],ACT
same,Functional effect of P1-WD on ERBB2,[2],ACT
same,Functional effect of P1-WD on GRIN2B,[2],ACT
same,Functional effect of P1-WD on ITGB1,[2],IN
same,Functional effect of P1-WD on JAK2,[2],IN
same,Functional effect of P1-WD on KDR,[2],IN
same,Functional effect of P1-WD on KIT,[2],IN
same,Functional effect of P1-WD on LIMK1,[2],IN
same,Functional effect of P1-WD on MET,[2],IN
same,Functional effect of P1-WD on PDGFRA,[2],ACT
same,Functional effect of P1-WD on PDGFRB,[2],IN
same,Functional effect of P1-WD on PRKCD,[2],ACT
same,Functional effect of P1-WD on SHC1,[2],IN
same,Functional effect of P1-WD on STAT1,[2],ACT
same,Functional effect of P1-WD on STAT2,[2],ACT
same,Functional effect of P1-WD on STAT3,[2],ACT
same,Functional effect of P1-WD on STAT5A,[2],ACT
same,Functional effect of P1-WD on VCL,[2],IN
same,Functional effect of P1-WD on INSR,[3],ACT/ACT
same,Functional effect of P1-WD on PXN,[3],ACT/ACT
same,Functional effect of P1-WD on SRC,[3],IN/IN
same,Functional effect of P1-WD on ZAP70,[3],ACT/ACT
same,Functional effect of P1-WD on PTK2,"putative, inferred from literature data-mining, per p-Site Y397/Y577/Y576/Y861, cell wraps to r32 (/IN)",ACT/IN/ACT
same,Functional effect of P1-WD on EGFR,"putative, inferred from literature data-mining, per p-Site Y1068/Y1148/Y1173",IN/IN/ACT
